Results published in patent US20150099667A1, “METHODS FOR THE ACTIVATION OF SILENT GENES IN A MICROORGANISM” (priority 2012, published 2015).
Where two headings read alike, the source gives them in different places.

Legend:
Test in all cases: Biological screening of extracts of induced Actinobacteria, BacTiter-Glo assay
Format in all cases: cell-based
[1] = system: Pseudomonas aeruginosa ATCC 27853
[2] = system: Staphylococcus aureus ATCC 33592
[3] = system: Candida albicans ATCC 753; settings: FIG. 10
[4] = system: Escherichia coli ATCC 35218; settings: FIG. 4
[5] = chemical inducer 3.3 μg/ml in medium 5294

With `[Cl-].[Cl-].[Co+2]` [CoCl2] the “extracts showing >50% activity against Pseudomonas aeruginosa ATCC 27853, share by culture condition” value [1] was 3.8% and the “extracts that showed >50% activity against Staphylococcus aureus ATCC 33592, share by culture condition” value [2] was 3.6%.
`C[S+](C)[O-]` [DMSO] was tested, and the “extracts that showed >50% activity against Candida albicans ATCC 753, share by culture condition” value ([3]; chemical inducer 10 μl/ml in medium 5294) was 3.5% and the “extracts that showed >50% activity against Escherichia coli ATCC 35218, share by culture condition” value ([4]; chemical inducer 50 μl/ml in medium 5294) was 3.6%.
In the case of `O=[Se]([O-])O.[Na+]` [NaHSeO3], the “extracts that showed >50% activity against Escherichia coli ATCC 35218, share by culture condition” value [4, 5] is reported as 3.3%.
For `[Cl][Ni][Cl]` [NiCl2], the “extracts that showed >50% activity against Candida albicans ATCC 753, share by culture condition” value [3, 5] was 3.7%.
With `[Cl-].[Cl-].[Sr+2]` [SrCl2] the “extracts showing >50% activity against Pseudomonas aeruginosa ATCC 27853, share by culture condition” value ([1]; chemical inducer 3.3 μg/ml in medium 5294, FIG. 6) was 3.8%, the “extracts that showed >50% activity against Candida albicans ATCC 753, share by culture condition” value ([3]; chemical inducer 1.6 μg/ml in medium 5294) was 3.5% and the “extracts that showed >50% activity against Staphylococcus aureus ATCC 33592, share by culture condition” value ([2]; chemical inducer 3.3 μg/ml in medium 5294, FIG. 8) was 3.5%.
